Results published in patent publication US20250145589A1, “PYRIDINE DERIVATIVE AND USE THEREOF” (SICHUAN HUIYU PHARMACEUTICAL CO., LTD., priority 2021, published 2025).
Read-outs that look alike come from different tables or passages of the source.

Columns and labels:
KRAS^G12C-SOS1 = KRAS^G12C-SOS1 (Homo sapiens (Human), UniProt P01116, G12C); assay: HTRF KRAS G12C/SOS1 binding assay; details: Table 5
Procedure, shortened: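 Compound was serially diluted five-fold over eight points, with a 2 mM DMSO stock. After anti-tag-Tb3+ and anti-tag-XL665 were added, plates were incubated 3 h at 4 °C and read by HTRF (ex 337 nm, em 620/665 nm ratio). IC50 values come from four-parameter variable-slope fits.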

PI3Kα = PI3Kα (Homo sapiens (Human), UniProt P42336); assay: Inhibition of PI3Kα efficacy assay (ADP-Glo kinase assay); type: biochemical; details: read-out: PI3Kα inhibitory activity (IC50)
Procedure, shortened: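 ADP-Glo luminescent detection of ADP from PI3Kα acting on PI substrate with ATP, 60 min at RT; compounds in 8-point five-fold serial dilution from 2 mM DMSO stock. IC50 from four-parameter variable-slope fit.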

[1] = tested on: NCI-H358 cells (KRAS G12C mutant); assay: NCI-H358 cell proliferation inhibition (CellTiter-Glo); type: cell-based; details: read-out: NCI-H358 (IC50)
PI3Kδ = PI3Kδ (Homo sapiens (Human), UniProt O00329); assay: Inhibition of PI3Kδ efficacy assay (ADP-Glo kinase assay); type: biochemical; details: read-out: PI3Kδ inhibitory activity (IC50)
Procedure, shortened: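 Luminescent ADP-Glo readout of PI3Kδ: after a 60 min RT reaction with PI/ATP substrate, ATP depletion (40 min) and ADP detection (40 min) steps followed. Compounds tested as eight five-fold serial dilutions; inhibition rates fitted to log(inhibitor) vs. response, variable slope, for IC50.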

[2] = Homo sapiens, NCI-H358, 72 h, H358 cells (G12C mutation), 3 days, Table 6

PI3Kα, sequence (P42336 whole entry): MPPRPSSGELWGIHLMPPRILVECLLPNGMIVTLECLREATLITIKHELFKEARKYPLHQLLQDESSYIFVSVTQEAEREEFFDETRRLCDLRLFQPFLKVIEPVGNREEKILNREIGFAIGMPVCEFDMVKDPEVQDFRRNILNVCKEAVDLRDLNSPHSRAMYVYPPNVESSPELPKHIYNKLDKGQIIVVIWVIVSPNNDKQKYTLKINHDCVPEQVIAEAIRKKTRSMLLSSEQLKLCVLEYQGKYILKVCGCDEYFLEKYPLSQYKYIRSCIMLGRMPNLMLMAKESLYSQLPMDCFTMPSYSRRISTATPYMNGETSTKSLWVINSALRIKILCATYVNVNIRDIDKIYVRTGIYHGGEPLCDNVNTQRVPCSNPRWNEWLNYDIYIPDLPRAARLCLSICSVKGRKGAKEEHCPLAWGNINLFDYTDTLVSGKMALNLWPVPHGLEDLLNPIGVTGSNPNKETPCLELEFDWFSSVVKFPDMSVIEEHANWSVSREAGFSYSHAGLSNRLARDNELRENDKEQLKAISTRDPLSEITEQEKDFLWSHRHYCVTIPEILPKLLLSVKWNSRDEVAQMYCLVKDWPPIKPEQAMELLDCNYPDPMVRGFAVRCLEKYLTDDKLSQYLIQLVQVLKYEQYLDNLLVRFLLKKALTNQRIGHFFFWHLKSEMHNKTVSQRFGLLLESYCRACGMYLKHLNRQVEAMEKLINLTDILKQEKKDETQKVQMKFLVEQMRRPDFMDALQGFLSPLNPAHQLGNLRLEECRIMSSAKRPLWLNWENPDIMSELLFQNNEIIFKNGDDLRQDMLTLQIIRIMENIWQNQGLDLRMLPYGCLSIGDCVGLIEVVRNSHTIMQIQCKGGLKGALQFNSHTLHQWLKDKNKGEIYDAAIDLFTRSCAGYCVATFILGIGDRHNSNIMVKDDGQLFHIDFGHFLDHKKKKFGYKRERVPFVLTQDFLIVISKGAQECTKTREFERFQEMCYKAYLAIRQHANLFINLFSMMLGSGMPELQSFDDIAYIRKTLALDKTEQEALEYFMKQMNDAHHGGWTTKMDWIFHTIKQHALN
PI3Kα, sequence (P27986 whole entry partner): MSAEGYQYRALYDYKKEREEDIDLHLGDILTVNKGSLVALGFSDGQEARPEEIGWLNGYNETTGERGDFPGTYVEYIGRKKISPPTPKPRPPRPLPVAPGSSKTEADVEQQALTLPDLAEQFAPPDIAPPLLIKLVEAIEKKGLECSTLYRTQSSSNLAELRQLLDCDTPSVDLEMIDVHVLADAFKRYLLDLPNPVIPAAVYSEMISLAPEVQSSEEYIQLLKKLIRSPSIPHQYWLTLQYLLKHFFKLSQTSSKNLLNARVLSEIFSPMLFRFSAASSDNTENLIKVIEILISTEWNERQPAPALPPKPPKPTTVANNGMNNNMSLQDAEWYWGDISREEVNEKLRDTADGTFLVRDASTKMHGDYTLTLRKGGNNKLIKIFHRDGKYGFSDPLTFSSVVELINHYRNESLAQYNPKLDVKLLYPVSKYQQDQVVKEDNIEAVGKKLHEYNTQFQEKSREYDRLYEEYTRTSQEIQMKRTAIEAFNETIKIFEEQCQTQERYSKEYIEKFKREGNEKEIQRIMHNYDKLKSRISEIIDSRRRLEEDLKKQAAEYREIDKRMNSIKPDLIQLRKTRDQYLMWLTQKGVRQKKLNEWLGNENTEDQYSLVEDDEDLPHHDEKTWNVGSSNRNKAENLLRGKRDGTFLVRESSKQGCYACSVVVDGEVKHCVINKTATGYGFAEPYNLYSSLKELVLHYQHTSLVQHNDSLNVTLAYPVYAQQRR
PI3Kδ, sequence (O00329 whole entry): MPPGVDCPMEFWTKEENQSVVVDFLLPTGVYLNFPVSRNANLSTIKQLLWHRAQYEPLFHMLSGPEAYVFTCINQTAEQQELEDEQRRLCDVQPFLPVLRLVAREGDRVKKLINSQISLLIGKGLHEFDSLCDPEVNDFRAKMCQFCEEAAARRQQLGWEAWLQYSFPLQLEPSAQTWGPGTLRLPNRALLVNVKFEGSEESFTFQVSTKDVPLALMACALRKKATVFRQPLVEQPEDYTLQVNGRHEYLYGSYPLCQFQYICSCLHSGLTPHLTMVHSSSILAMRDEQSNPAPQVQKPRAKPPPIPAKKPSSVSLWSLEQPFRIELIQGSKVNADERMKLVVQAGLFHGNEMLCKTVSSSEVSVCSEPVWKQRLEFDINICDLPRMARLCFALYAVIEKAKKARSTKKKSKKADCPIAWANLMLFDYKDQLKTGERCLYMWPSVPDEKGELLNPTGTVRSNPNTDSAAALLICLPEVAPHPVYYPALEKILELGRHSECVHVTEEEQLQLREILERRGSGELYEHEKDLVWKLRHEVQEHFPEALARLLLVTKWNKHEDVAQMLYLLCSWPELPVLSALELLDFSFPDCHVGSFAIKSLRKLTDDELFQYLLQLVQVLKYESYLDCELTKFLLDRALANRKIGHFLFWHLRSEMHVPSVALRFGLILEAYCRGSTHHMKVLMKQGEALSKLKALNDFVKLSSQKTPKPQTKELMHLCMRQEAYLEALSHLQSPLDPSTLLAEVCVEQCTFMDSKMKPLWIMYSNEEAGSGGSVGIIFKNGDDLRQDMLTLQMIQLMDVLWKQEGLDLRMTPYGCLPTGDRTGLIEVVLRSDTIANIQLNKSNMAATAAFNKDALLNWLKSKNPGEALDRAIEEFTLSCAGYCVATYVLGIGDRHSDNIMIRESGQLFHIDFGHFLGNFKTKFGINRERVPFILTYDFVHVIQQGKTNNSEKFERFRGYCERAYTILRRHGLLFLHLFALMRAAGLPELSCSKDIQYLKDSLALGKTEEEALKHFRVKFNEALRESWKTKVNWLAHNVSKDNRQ
PI3Kδ, sequence (P27986 whole entry partner): as the sequence (P27986 whole entry partner) above
KRAS^G12C-SOS1, sequence (P01116-2 other isoform, or with tags, fused parts or gaps G12C): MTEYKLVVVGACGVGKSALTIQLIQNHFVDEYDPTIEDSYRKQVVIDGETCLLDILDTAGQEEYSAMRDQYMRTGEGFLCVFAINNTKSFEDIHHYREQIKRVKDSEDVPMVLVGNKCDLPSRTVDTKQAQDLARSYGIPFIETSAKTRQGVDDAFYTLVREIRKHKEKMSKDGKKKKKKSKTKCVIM

Structure (SMILES)	IC50 (KRAS^G12C-SOS1) [nM]	IC50 (PI3Kα; Table 4) [nM]	IC50 [1, 2] [nM]	IC50 (PI3Kδ; Table 4) [nM]	IC50 (PI3Kα; Table 2) [nM]	IC50 (PI3Kδ; Table 2) [nM]	IC50 ([1]; H358 cells (G12C mutation), 3 days, Table 6) [nM]	IC50 (PI3Kα; Table 1) [nM]	IC50 (PI3Kδ; Table 1) [nM]	IC50 (PI3Kα) [nM]	IC50 [1] [nM]
COc1ncc(-c2ccc3ncnc(N4CCN(C(=O)/C=C/C(C)=O)C[C@@H]4C)c3c2)cc1NS(=O)(=O)c1c(F)cc(F)cc1F [Example 154, (S,E)-2,4,6-trifluoro-N-(2-methoxy-5-(4-(2-methyl-4-(4-oxopent-2-enoyl)piperazin-1-yl)quinazolin-6-yl)pyridin-3-yl)benzenesulfonamide]	183	0.54	16.7	13.8							
COc1ncc(-c2ccc3ncnc(N4CCN(C(=O)/C=C/C(C)=O)CC4)c3c2)cc1NS(=O)(=O)c1ccncc1C [Example 172, (E)-N-(2-methoxy-5-(4-(4-(4-oxopent-2-enoyl)piperazin-1-yl)quinazolin-6-yl)pyridin-3-yl)-3-methyl-pyridine-4-sulfonamide]	622	4.1	68.1	11.3							
COc1ncc(-c2ccc3ncnc(N4CCN(C(=O)/C=C/C(C)=O)CC4)c3c2)cc1NS(=O)(=O)c1cc(F)ccc1F [Example 94, (E)-2,5-difluoro-N-(2-methoxy-5-(4-(4-(4-oxopent-2-enoyl)piperazin-1-yl)quinazolin-6-yl)pyridin-3-yl)benzenesulfonamide]	189		62.5		11	56.7					
COc1ncc(-c2ccc3ncnc(C4CCN(C(=O)/C=C/C(C)=O)CC4)c3n2)cc1NS(=O)(=O)c1ccc(F)cc1F [Example 234, (E)-2,4-difluoro-N-(2-methoxy-5-(4-(1-(4-oxopent-2-enoyl)piperidin-4-yl)pyrido[3,2-d]pyrimidin-6-yl)pyridin-3-yl)benzenesulfonamide]	292	4.2	5.5	20							
COc1ncc(-c2ccc3ncnc(C4CCN(C(=O)/C=C/C(C)=O)CC4)c3c2)cc1NS(=O)(=O)c1c(F)cccc1Cl [Example 206, (E)-2-chloro-6-fluoro-N-(2-methoxy-5-(4-(1-(4-oxopent-2-enoyl)piperidin-4-yl)quinazolin-6-yl)pyridin-3-yl) benzenesulfonamide]	188	3.9	8	15							
COc1ncc(-c2ccc3ncnc(C4=CCN(C(=O)/C=C/C(C)=O)CC4)c3c2)cc1NS(=O)(=O)c1ccccc1F [Example 200, (E)-2-fluoro-N-(2-methoxy-5-(4-(1-(4-oxopent-2-enoyl)-1,2,3,6-tetrahydropyridin-4-yl)quinazolin-6-yl)pyridin-3-yl)benzene-sulfonamide]	133	2.3	10.9	9.7							
COc1ncc(-c2ccc3ncnc(N4CCC5(CC4)CN(C(=O)/C=C/C(C)=O)C5)c3c2)cc1NS(=O)(=O)c1ccc(F)cc1Cl [Example 171, (E)-2-chloro-4-fluoro-N-(2-methoxy-5-(4-(2-(4-oxopent-2-enoyl)-2,7-diazaspiro[3.5]nonan-7-yl)quinazolin-6-yl)pyridin-3-yl)benzene-sulfonamide]	441	12.9	5.7	40.1							
COc1ncc(-c2ccc3ncnc(N4C5CCC4CN(C(=O)/C=C/C(C)=O)C5)c3c2)cc1NS(=O)(=O)c1ccc(F)cc1F [Example 144, 2,4-difluoro-N-(2-methoxy-5-(4-(3-((E)-4-oxopent-2-enoyl)-3,8-diazabicyclo[3.2.1]octan-8-yl)quinazolin-6-yl)pyridin-3-yl)benzenesulfonamide]	390	3.2	47.8	13.4							
COc1ncc(-c2ccc3ncnc(N4CCN(C(=O)/C=C/C(C)=O)CC4)c3n2)cc1NS(=O)(=O)c1c(F)cccc1Cl [Example 225, (E)-2-chloro-6-fluoro-N-(2-methoxy-5-(4-(4-(4-oxopent-2-enoyl)piperazin-1-yl)pyrido[3,2-d]pyrimidin-6-yl)pyridin-3-yl) benzene-sulfonamide]	110	0.5	13.5	8.9							
COc1ncc(-c2ccc3ncnc(N4CCN(C(=O)/C=C/C(C)=O)C[C@@H]4C)c3c2)cc1NS(=O)(=O)c1c(F)cccc1F [Example 46, (S,E)-2,6-difluoro-N-(2-methoxy-5-(4-(2-methyl-4-(4-oxopent-2-enoyl)piperazin-1-yl)quinazolin-6-yl)pyridin-3-yl) benzenesulfonamide]	166		29.9		1.7	36.3					
COc1ncc(-c2ccc3ncnc(C4=CCN(C(=O)/C=C/C(C)=O)CC4)c3c2)cc1NS(=O)(=O)c1ccc(F)cc1F [Example 198, (E)-2,4-difluoro-N-(2-methoxy-5-(4-(1-(4-oxopent-2-enoyl)-1,2,3,6-tetrahydropyridin-4-yl)quinazolin-6-yl)pyridin-3-yl)benzenesulfonamide]	133	1.1	12.2	13.3							
COc1ncc(-c2ccc3ncnc(N4CCN(C(=O)/C=C/C(C)=O)[C@H](C)C4)c3n2)cc1NS(=O)(=O)c1ccccc1F [Example 228, (R,E)-2-fluoro-N-(2-methoxy-5-(4-(3-methyl-4-(4-oxopent-2-enoyl)piperazin-1-yl)pyrido[3,2-d]pyrimidin-6-yl)pyridin-3-yl)benzene-sulfonamide]	294	2.8	13.2	15.9							
COc1ncc(-c2ccc3ncnc(C4CCN(C(=O)/C=C/C(C)=O)CC4)c3c2)cc1NS(=O)(=O)c1c(F)cccc1F [Example 205, (E)-2,6-difluoro-N-(2-methoxy-5-(4-(1-(4-oxopent-2-enoyl)piperidin-4-yl)quinazolin-6-yl)pyridin-3-yl) benzenesulfonamide]	369	1.3	14.3	9							
COc1ncc(-c2ccc3ncnc(N4CCN(C(=O)/C=C/C(C)=O)CC4)c3c2)cc1NS(=O)(=O)c1ccc(C)cc1F [Example 111]	364				8.8	23.2	15.8				
COc1ncc(-c2ccc3ncnc(N4CCN(C(=O)/C=C/C(C)=O)CC4)c3c2)cc1NS(=O)(=O)c1ccc(F)cc1Cl [Example 169, (E)-2-chloro-4-fluoro-N-(2-methoxy-5-(4-(4-(4-oxopent-2-enoyl)piperazin-1-yl)quinazolin-6-yl)pyridin-3-yl)benzenesulfonamide]	249	3.8	5.7	18.9							
COc1ncc(-c2ccc3ncnc(N4CC5CCC(C4)N5C(=O)/C=C/C(C)=O)c3c2)cc1NS(=O)(=O)c1ccc(F)cc1Cl [Example 175, 2-chloro-4-fluoro-N-(2-methoxy-5-(4-(8-((E)-4-oxopent-2-enoyl)-3,8-diazabicyclo [3.2.1]octan-3-yl)quinazolin-6-yl)pyridin-3-yl)benzene-sulfonamide]	288	6	22.3	16.2							
CCCC(=O)/C=C/C(=O)N1CCN(c2ncnc3ccc(-c4cnc(OC)c(NS(=O)(=O)c5ccc(F)cc5F)c4)cc23)CC1 [Example 17, (E)-2,4-difluoro-N-(2-methoxy-5-(4-(4-(4-oxohept-2-enoyl)piperazin-1-yl)quinazolin-6-yl)pyridin-3-yl)benzenesulfonamide]	313		34.6					2.3	31		
COc1ncc(-c2ccc3ncnc(N4CCC5(CN(C(=O)/C=C/C(C)=O)C5)C4)c3c2)cc1NS(=O)(=O)c1c(F)cccc1F [Example 42]	109					16.5				1.5	79
COc1ncc(-c2ccc3ncnc(N4CCN(C(=O)/C=C/C(C)=O)CC4)c3n2)cc1NS(=O)(=O)c1ccncc1F [Example 220, (E)-3-fluoro-N-(2-methoxy-5-(4-(4-(4-oxopent-2-enoyl)piperazin-1-yl)pyrido[3,2-d]pyrimidin-6-yl)pyridin-3-yl) pyridine-4-sulfonamide]	274	1.1	61.5	11.4							
COc1ncc(-c2ccc3ncnc(N4CC5CCC(C4)N5C(=O)/C=C/C(C)=O)c3c2)cc1NS(=O)(=O)c1c(F)cccc1F [Example 145, 2,6-difluoro-N-(2-methoxy-5-(4-(8-((E)-4-oxopent-2-enoyl)-3,8-diazabicyclo[3.2.1]octan-3-yl)quinazolin-6-yl)pyridin-3-yl)benzenesulfonamide]	200	0.44	36.2	23.8							
COc1ncc(-c2ccc3ncnc(N4CCN(C(=O)/C=C/C(C)=O)CC4)c3c2)cc1NS(=O)(=O)c1c(F)cccc1F [Example 22, (E)-2,6-difluoro-N-(2-methoxy-5-(4-(4-(4-oxopent-2-enoyl)piperazin-1-yl)quinazolin-6-yl)pyridin-3-yl)benzenesulfonamide]	149		23.7					11.6	82.8		
